In patent publication US4191808A, “Method of measuring dipeptidyl-amino-peptidase activity” (Ajinomoto Co., Inc., priority 1975, dated 1980):
Blank lines part the entries; values can stand above or below the compound they belong to. Peptide text beside a SMILES is read from it. * marks the point of attachment. pNA = O=[N+]([O-])c1ccc(N*)cc1

Assays:
human serum = test: Paper chromatography of products after incubation with human serum; format: biochemical; details: incubation 30 minutes
Method: The products obtained after incubating various X-L-proline p-nitroanilides with purified human submaxillary enzyme or human serum for 30 minutes as in Example 22 were examined by paper chromatography, the residues of glycine, L-alanine, L-glutamic acid, L-aspartic acid, L-lysine and L-argine being used as the N-terminal amino acids (X).
When the rate of hydrolysis of L-proline p-nitroanilide by human serum was examined, it was observed only 0.7% of hydrolysis of glycyl-L-proline p-nitroanilide.

[1] = Stability of aqueous substrate solution; format: physicochemical; details: at the optimum pH, 4° C.
Method: The enzyme activity is measured without difficulty by using the dipeptide derivatives or salts thereof as substrates. An aqueous solution of X-L-proline-Y or salt thereof having a suitable concentration is first prepared. Since it requires a fairly long time to dissolve the substrate in water, it is preferred to use suitable substances capable of increasing the dissolution rate such as non-ionic detergents, acids and alcohols, or to use the substrate in the porous form which may be prepared by freeze-drying or the like. The porous substrate is most convenient for routine use for assay of the enzyme. The optimum pH of the substrate solution varies depending on the kind of substrate employed, but is easily determined by experiments. The optimum pH is usually in the range of from 6 to 9, preferably of from 7.5 to 8.9.

[2] = tested on: purified human submaxillary enzyme (X-prolyl dipeptidyl-aminopeptidase); test: Direct photometric assay of substrate hydrolysis with purified human submaxillary enzyme; format: biochemical
Method: (§1) 3mM substrate solutions were prepared as in Example 22, various dipeptide derivatives or salts thereof being used as substrates. The relative enzyme activities toward various substrates, and the rates and optimum pHs of hydrolysis of various substrates with the enzyme were measured as in Example 22.
^a Activities were measured in 0.15 M Trismaleate buffer at pH 5.6-8.
and in 0.15 M glycineNaOH buffer at pH 8.2-9.4, purified human
submaxillary enzyme being used. For Lalanyl-L-proline pnitroanilide,
amidiol buffer were used instead of glycine buffer, since glycine buffer
interfered the photometry at pH 9-10.
^b Km values were measured at 7.0 in Trismaleate buffer, purified
human submaxillary enzyme being used. The values are the mean of duplicat
(§2) ^c Activities were measured at pH 7.0 in 0.15 M Trismaleate buffer or
(§3) at pH 8.7 in 0.15 M glycineNaOH buffer. The values are the mean of
^d The purified enzyme was obtained by the following method; The
enzyme was solubilized from the microsomal fraction by autodigestion, and
subsequently purified by (NH4)2 SO4 fractionation followed
by Sephadex G200 chromatography.

[3] = target: T1, X-prolyl dipeptidyl-aminopeptidase in human serum (Homo sapiens, UniProt P27487); test: Direct photometric assay of substrate hydrolysis (p-nitroaniline liberated, 385 nm) with human serum as enzyme source; format: biochemical; details: for Enzyme activity (μmole/min/1 serum ± S.E.): 3 cases; for Amount of p-nitroaniline formed: 37° C., pH 8.7, 0.05 ml human serum; for Enzyme activity average ± S. E.: normal human sera
T1 construct: Even if crude enzyme such as human serum is used as enzyme source, the activity is accurately measured; from tissue; host or cells: human serum (normal subjects and patients)
T1 sequence (P27487 39-766 limits assumed): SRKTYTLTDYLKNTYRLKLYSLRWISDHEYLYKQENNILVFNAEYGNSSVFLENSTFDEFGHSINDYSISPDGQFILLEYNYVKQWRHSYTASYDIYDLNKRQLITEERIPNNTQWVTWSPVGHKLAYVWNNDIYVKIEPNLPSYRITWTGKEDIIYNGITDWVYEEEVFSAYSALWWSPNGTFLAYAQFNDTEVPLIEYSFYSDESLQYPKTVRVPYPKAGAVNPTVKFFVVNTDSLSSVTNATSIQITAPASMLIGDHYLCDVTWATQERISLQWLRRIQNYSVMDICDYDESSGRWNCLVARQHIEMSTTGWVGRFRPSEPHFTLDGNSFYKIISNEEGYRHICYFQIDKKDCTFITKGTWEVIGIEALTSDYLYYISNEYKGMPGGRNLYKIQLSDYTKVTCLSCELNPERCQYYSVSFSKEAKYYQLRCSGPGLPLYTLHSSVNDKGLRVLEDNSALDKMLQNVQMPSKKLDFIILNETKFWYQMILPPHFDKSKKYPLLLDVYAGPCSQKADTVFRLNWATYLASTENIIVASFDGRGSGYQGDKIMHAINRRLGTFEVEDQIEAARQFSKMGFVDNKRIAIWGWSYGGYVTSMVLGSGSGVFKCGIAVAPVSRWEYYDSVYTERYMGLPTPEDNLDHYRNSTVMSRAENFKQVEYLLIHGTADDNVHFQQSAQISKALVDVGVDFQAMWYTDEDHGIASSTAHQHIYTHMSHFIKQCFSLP
Method: The relation between the incubation time and the amount of substrate hydrolyzed was examined, glycyl-L-proline p-nitroanilide and human serum being used as substrate and enzyme source, respectively, and the assay of the substrate hydrolyzed was carried out by the following direct photometric method.
Glycyl-L-proline p-nitroanilide tosylate was dissolved in 2% non-ionic detergent (Nikkol NP-10; Nikko Chemicals, Osaka, Japan) aqueous solution in a concentration of 3 mM to prepare the substrate solution. The following four tubes were prepared:
(1) the experimental tube contained 0.5 ml of 0.15 M glycine-NaOH buffer (pH 8.7), 0.5 ml of the substrate solution, and 0.05 ml of human serum
(2) the blank tube contained 0.5 ml of the 0.15 M glycine-NaOH buffer, 0.5 ml of the substrate solution and 0.05 ml of water.
(3) the standard tube contained 0.5 ml of the buffer, 0.5 ml of the substrate and 0.05 ml of 3 mM p-nitroaniline aqueous solution.
(4) the control tube contained 0.5 ml of the buffer and 0.5 ml of the substrate.
All tubes were incubated at 37° C. for the periods listed in Table 1, and the reaction was stopped by the addition of 3.0 ml of 1M acetate buffer (pH 4.2) to every tube. To the control tube, 0.05 ml of the human serum was added after stopping the reaction. A photometer was adjusted to zero with the blank, and the absorbances of the experimental (E), control (C), and standard (S) were read at 385 nm in a cuvette with 1 cm light path. p-Nitroaniline liberated by the enzyme reaction was calculated by the equation [formula]
as §1, §2, §3
The activity of X-prolyl dipeptidyl-aminopeptidase was measured as in Example 22, glycyl-L-proline p-nitroanilide and 88 normal human sera being used as substrate and enzyme, respectively.
The activity of X-prolyl dipeptidyl-aminopeptidase was measured as in Example 22, glycyl-L-proline p-nitroanilide and human sera from patients being used as substrate and enzyme sources, respectively.
The activity of X-prolyl dipeptidyl-aminopeptidase was measured as in Example 22, various X-L-prolyl p-nitroanilides, and human sera from patients being used as substrates and enzyme sources, respectively.

[4] = target: T1, X-prolyl dipeptidyl-aminopeptidase in human serum; test: Hydrolysis of phenylazo substrates by human serum, photometry at 493 nm / 532 nm; format: biochemical
Method: 3 mM of substrate solutions were prepared as in Example 22, glycyl-L-proline p-phenylazoanilide tosylate and glycyl-L-proline 4-phenylazo-1-naphthylamide being used as substrates.
The assay of enzyme activity was carried out by adding 0.05 ml of human serum to a mixture of 0.5 ml […] glycine-NaOH buffer (pH 8.7) and 0.5 ml substrate solution in the experimental tube, incubating the resulting solution at 37° C. for 30 minutes, and then stopping the reaction with 3.0 ml 1N-hydrochloric acid. The absorbances were A 493 nm=0.18 for glycyl-L-proline p-phenylazoanilide and A 532 nm=0.80 for glycyl-L-proline 4-phenylazo-1-naphthylamide.
The rate of hydrolysis of glycyl-L-proline p-phenylazoanilide was measured as in Example 26, human serum being used as enzyme. However, the blank tube contained water instead of the enzyme solution in the experimental tube, and the standard tube contained 3 mM p-phenylazo-aniline solution instead of the enzyme solution in the experimental tube.

[5] = 0.05 ml human serum, pH 8.7, 37° C., 30 minutes

Compound: NCC(=O)N1CCC[C@H]1C(=O)O [Glycyl-L-proline] (H-Gly-Pro-OH)
products identified by paper chromatography / hydrolysis by human serum (human serum): hydrolyzed to glycine and L-proline

storage of substrate solution without appreciable degradation [1]: more than a week
Optimum pH ([2]; Tris-maleate, glycine-NaOH or amidiol buffer): 8.5-8.7
Relative enzyme activity (%) Purified human submaxillary enzyme pH 7.0 ([2]; pH 7.0, 0.15 M Tris-maleate buffer, glycyl-L-proline p-nitroanilide = 100): 100%
Km ([2]; pH 7.0, Tris-maleate buffer, mean of duplicate experiments): 330 µM
Enzyme activity ([3]; human sera from patients, Acute lymphocytic leukemia, 22 cases): 38.8 ± 11.9 μmole/min/1 serum
Enzyme activity ([3]; human sera from patients, Early essential hypertension, 20 cases): 80.94 ± 3.87 μmole/min/1 serum
Enzyme activity ([3]; human sera from patients, Fixed essential hypertension, 17 cases): 89.29 ± 3.69 μmole/min/1 serum
Enzyme activity (μmole/min/1 serum ± S.E.) ([3]; human sera from patients, Gastric Cancer): 25.3 ± 3.0 μmole/min/1 serum
Enzyme activity ([3]; human sera from patients, Gastric Cancer, 37 cases): 38.4 ± 2.3 μmole/min/1 serum
Enzyme activity (μmole/min/1 serum ± S.E.) ([3]; human sera from patients, Hepatitis): 143.0 ± 31.8 μmole/min/1 serum
Enzyme activity ([3]; human sera from patients, Hepatitis, 23 cases): 75.8 ± 28.5 μmole/min/1 serum
Enzyme activity ([3]; human sera from patients, Hodgkin's disease, 15 cases): 31.0 ± 9.5 μmole/min/1 serum
Enzyme activity ([3]; human sera from patients, Lymphosarcoma, 11 cases): 36.3 ± 5.6 μmole/min/1 serum
Enzyme activity ([3]; human sera from patients, Pulmonary Cancer, 17 cases): 39.8 ± 2.6 μmole/min/1 serum
Enzyme activity (μmole/min/1 serum ± S.E.) ([3]; human sera, Normal (control)): 50.4 ± 15.0 μmole/min/1 serum
Enzyme activity ([3]; human sera, Normal (control), 88 cases): 54.9 ± 1.5 μmole/min/1 serum
Relative enzyme activity (%) Human serum pH 7.0 ([3]; human serum, pH 7.0, 0.15 M Tris-maleate buffer, glycyl-L-proline p-nitroanilide = 100): 100%
Relative enzyme activity (%) Human serum pH 8.7 ([3]; human serum, pH 8.7, 0.15 M glycine-NaOH buffer, glycyl-L-proline p-nitroanilide = 100): 100%
Amount of p-nitroaniline formed ([3]; incubation time 15 min): 18.11 n mole
Amount of p-nitroaniline formed ([3]; incubation time 30 min): 35.43 n mole
Amount of p-nitroaniline formed ([3]; incubation time 60 min): 71.65 n mole
Amount of p-nitroaniline formed ([3]; incubation time 90 min): 100.79 n mole
Amount of p-nitroaniline formed ([3]; incubation time 120 min): 135.43 n mole
Enzyme activity average ± S. E. ([3]; Older Female, 17 subjects, 48-76 years): 58.16 ± 4.37 μ mole/min/1 serum
Enzyme activity average ± S. E. ([3]; Older Male, 29 subjects, 41-81 years): 53.18 ± 2.43 μ mole/min/1 serum
Enzyme activity average ± S. E. ([3]; Older, 46 subjects, 41-81 years): 55.04 ± 2.23 μ mole/min/1 serum
Enzyme activity average ± S. E. ([3]; Total Female, 35 subjects, 20-76 years): 52.49 ± 2.47 μ mole/min/1 serum
Enzyme activity average ± S. E. ([3]; Total Male, 53 subjects, 15-81 years): 56.30 ± 1.90 μ mole/min/1 serum
Enzyme activity average ± S. E. ([3]; Total, 88 subjects, 15-81 years): 54.88 ± 1.50 μ mole/min/1 serum
Enzyme activity average ± S. E. ([3]; Younger Female, 18 subjects, 20-40 years): 47.59 ± 2.07 μ mole/min/1 serum
Enzyme activity average ± S. E. ([3]; Younger Male, 24 subjects, 15-40 years): 60.10 ± 2.84 μ mole/min/1 serum
Enzyme activity average ± S. E. ([3]; Younger, 42 subjects, 15-40 years): 54.76 ± 2.07 μ mole/min/1 serum
Compound: NCC(=O)N1CCC[C@H]1C(=O)Nc1ccc([N+](=O)[O-])cc1 [glycyl-L-proline p-nitroanilide, Glycyl-L-proline p-nitroanilide] (H-Gly-Pro-pNA)
products identified by paper chromatography / hydrolysis by human serum (human serum): glycyl-L-proline, glycine, L-proline and p-nitroaniline were identified

Compound: Cc1ccc(S(=O)(=O)O)cc1.NCC(=O)N1CCC[C@H]1C(=O)Nc1ccc(N=Nc2ccccc2)cc1 [glycyl-L-proline p-phenylazoanilide, Glycyl-L-proline p-phenylazoanilide tosylate]
absorbance A 493 nm [4, 5]: 0.18
rate of hydrolysis ([4]; human serum as enzyme, as in Example 26): 18.7 n mole/min./l serum

absorbance A 532 nm [4, 5]: 0.80
Compound: NCC(=O)N1CCC[C@H]1C(=O)Nc1ccc(N=Nc2ccccc2)c2ccccc12 [Glycyl-L-proline 4-phenylazo-1-naphthyl amide]
